Measured values reported in article PMC9351465, “Mechanism-based heparanase inhibitors reduce cancer metastasis in vivo” (Proceedings of the National Academy of Sciences of the …, 2022).

Key:
[1] = system: U87 glioblastoma cells; assay: Matrigel invasion assay; format: cell-based, human; conditions: 20 µM inhibitor, 4 h
Experimental: Preliminary in cellulo evaluations of our inhibitors’ effects on cancer aggression were conducted using a Matrigel invasion assay, which measures the ability of cells to migrate through transwell inserts coated with the ECM material Matrigel. Matrigel invasion by cells requires a broad complement of proteases and glycosidases, thereby mimicking some aspects of metastasis in vivo ([51]).
(§1) For HS-degradation assays, ECM coated dishes were incubated with 200 ng recombinant HPSE in 1 mL reaction mixture (10 mM buffer Phosphate-Citrate pH 6.0, 50 mM NaCl, 1 mM DTT, 1 mM CaCl2) containing HPSE inhibitors or DMSO control. Plates were incubated at 37°C for 5 h, then assay medium collected and applied to a 0.9×30 cm Sepharose 6B size exclusion column. The Sepharose 6B column was eluted with PBS, and 35S radioactivity of 0.2 mL fractions quantitated using a liquid scintillation analyzer (Packard BioScience) (11). […]
Cells in the upper chamber were separated by Matrigel from a lower chamber containing 600 µL DMEM, supplemented with 10% FBS. […] 10 randomly selected microscopic fields were recorded, and cell invasion calculated using ImageJ, by quantitating the percentage of the field stained by crystal violet. […]

[2] = target: T1, HPSE (Homo sapiens, UniProt Q9Y251); assay: H35SPG basement membrane (ECM) digest by recombinant HPSE; format: biochemical
T1 sequence (Q9Y251 158-543 limits assumed): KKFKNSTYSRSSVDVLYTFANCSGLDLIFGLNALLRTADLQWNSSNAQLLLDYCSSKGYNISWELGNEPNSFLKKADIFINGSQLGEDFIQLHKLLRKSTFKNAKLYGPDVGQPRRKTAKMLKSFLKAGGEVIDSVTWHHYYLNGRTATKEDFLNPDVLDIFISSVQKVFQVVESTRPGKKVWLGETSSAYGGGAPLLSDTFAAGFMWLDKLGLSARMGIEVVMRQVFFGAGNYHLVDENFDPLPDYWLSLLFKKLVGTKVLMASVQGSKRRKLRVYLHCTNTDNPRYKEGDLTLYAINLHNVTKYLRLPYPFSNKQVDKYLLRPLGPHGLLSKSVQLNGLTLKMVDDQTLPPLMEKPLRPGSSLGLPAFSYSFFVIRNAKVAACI
T1 sequence (Q9Y251 36-109 limits assumed): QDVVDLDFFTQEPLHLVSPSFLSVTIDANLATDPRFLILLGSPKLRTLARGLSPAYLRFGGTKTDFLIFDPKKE
Source text: Finally, we assessed our inhibitors against HPSE-mediated degradation of bona fide HSPGs in an ECM environment. Cultured bovine corneal endothelial cells secrete a subendothelial basement membrane material rich in proteoglycans, which can be radiolabeled by growth in the presence of ^35SO4^2− ([50]). Solubilized H^35S chains released from H^35SPGs by HPSE digestion can be resolved chromatographically, with HPSE inhibition leading to a corresponding loss of signal. […] We also tested inhibition of endogenous cellular HPSE using this assay format. […]
ECM coated 35 mm culture dishes containing 35S labelled HS were prepared as previously described (10). Briefly, bovine corneal endothelial cells were plated at an initial density of 2x10^5 cells/ml, with 4% dextran T-40 (Sigma) included in the growth medium. Na235SO4 (25 µCi/ml) was added to the incubation medium on days 2 and 5 after seeding. On day 12, subendothelial ECM is exposed by dissolving the cells with PBS containing 0.5% Triton X-100 and 20 mM NH4OH, followed by four washes with PBS.
as §1
Matrigel and […]
non-migrating cells in the upper side of the Boyden filter were removed by swabbing, then invading cells on the bottom side of the transwell filter imaged for analysis. […]
B16 melanoma - Twenty minutes before tumor cell inoculation, C57BL/J6 mice (n=5) were injected intraperitoneally with vehicle alone (PBS), compound 2 (300 nmol/mouse), or SST0001 (150 µg/mouse). Mice were subsequently intravenously inoculated with 1.5x105

CC(=O)N[C@H]1[C@@H](O[C@H]2[C@H](O)[C@@H](O)[C@@H]3O[C@@H]3[C@@H]2C(=O)O)O[C@H](CO)[C@@H](O)[C@@H]1O [compound 2]
Matrigel invasion (% field stained) [1]: significantly reduced Matrigel invasion | inhibition of recombinant HPSE-mediated H35SPG cleavage ([2]; 200 ng HPSE, pH 6.0, 37°C, 5 h): robust, dose-dependent inhibition | level of inhibition of H35SPG cleavage relative to 4.6 μM 10 ([2]; 1 μM 2 or 3 compared to 4.6 μM 10): comparable levels of inhibition
